From patent publication EP4745134A1 (Jiangsu Yahong Meditech Co., Ltd., priority 2023, dated 2025)

biological target: PRMT5-MTA (Homo sapiens, UniProt O14744); test: Enzymatic inhibitory activity against PRMT5-MTA (AlphaScreen); type: biochemical; settings: read-out: IC50
Description: The AlphaScreen method was used to detect the enzymatic inhibitory activity of the compounds against PRMT5-MTA. 1 x Methyltransferase assay buffer IV (signalchem) was prepared as a solution for diluting each component for the enzymatic reaction. PRMT5/[…] protein of a final concentration of 1 nM, […] (sigma) of a final concentration of 1 uM and S-(5'-adenosine)-L-methionine chloride dihydrochloride (sigma) of a final concentration of 2.5 uM were mixed, then incubated for 30 minutes at room temperature, and transferred to an OptiPlate-384 well plate (PerkinElmer) at a volume of 6 uL per well, for which no PRMT5/[…] protein was added to the control wells. The test compound was 3-fold serially diluted into 10 concentrations, starting from a concentration of 1000 nM, and the series of diluted compounds were added to all wells except the control wells in the well plate using Tecan D300e. The well plate was subjected to centrifugation for 1 minute at 1000 rpm in a centrifuge, and then incubated for 15 minutes at 23°C. Histone H4 substrate of a final concentration of 5 nM was added to the well plate at 4 uL per well, centrifuged for 1 minute at 1000 rpm in a centrifuge, then placed in an incubator at 23°C and reacted for 45 minutes. Anti-histone H4 (symmetrical dimethyl R3) antibody (Abcam) was incubated with 50 ug/mL of AlphaScreen Protein A Acceptor beads (PerkinElmer) for 10 minutes at room temperature beforehand, and then added to the well plate at a volume of 10 uL per well. The mixture was reacted for 1 hour at room temperature. 50 Ug/mL of AlphaScreen Streptavidin Donor beads (PerkinElmer) was added at 10 uL per well, and reacted for 1 hour at room temperature. The signal values were detected for the well plate through the Alpha method using an Envision multifunctional microplate-reader, and the IC50 values for inhibition of the compounds on PRMT5/MET50 enzyme activity were calculated in Xlfit 5.0 software. Table 1. IC50 values for inhibition of the compounds on PRMT5+MTA enzyme activity

Chain of PRMT5-MTA (O14744 whole entry): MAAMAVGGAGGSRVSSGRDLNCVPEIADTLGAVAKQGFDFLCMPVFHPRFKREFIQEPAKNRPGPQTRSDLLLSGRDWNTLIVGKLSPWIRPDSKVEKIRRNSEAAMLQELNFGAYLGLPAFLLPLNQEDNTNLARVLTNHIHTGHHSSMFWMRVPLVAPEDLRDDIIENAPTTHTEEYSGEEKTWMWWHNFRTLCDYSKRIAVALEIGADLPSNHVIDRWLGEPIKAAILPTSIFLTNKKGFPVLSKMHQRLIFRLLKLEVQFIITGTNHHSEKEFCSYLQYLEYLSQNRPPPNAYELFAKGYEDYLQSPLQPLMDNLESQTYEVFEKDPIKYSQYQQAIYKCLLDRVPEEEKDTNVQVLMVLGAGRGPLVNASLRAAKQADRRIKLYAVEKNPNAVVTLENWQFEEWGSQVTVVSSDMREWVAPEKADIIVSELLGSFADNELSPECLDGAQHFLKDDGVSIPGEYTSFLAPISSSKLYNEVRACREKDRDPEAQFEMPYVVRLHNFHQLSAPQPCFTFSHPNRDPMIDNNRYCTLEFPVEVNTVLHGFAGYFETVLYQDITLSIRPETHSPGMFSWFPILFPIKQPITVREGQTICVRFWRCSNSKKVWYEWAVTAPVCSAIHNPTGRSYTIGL
Chain of PRMT5-MTA (Q9BQA1 whole entry partner): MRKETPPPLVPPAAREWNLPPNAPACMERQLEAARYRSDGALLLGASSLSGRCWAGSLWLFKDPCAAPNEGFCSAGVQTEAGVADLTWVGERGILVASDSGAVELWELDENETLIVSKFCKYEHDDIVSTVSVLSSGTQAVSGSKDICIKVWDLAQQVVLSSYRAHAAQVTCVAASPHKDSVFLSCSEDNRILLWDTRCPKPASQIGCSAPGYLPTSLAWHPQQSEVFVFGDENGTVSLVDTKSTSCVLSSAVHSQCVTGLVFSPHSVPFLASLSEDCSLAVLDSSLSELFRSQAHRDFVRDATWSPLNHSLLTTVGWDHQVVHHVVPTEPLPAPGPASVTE

| SMILES | IC50 [nM] |
| --- | --- |
| Cc1cc2cc(C(=O)N(Cc3cnc(Br)cn3)N(C)c3ncccn3)ccc2nc1N [Example 282, 2-amino-N-((5-bromopyrazin-2-yl)methyl)-N',3-dimethyl-N'-(pyrimidin-2-yl)quinoline-6-carbohydrazide] | 4.5 |
| Cc1cc2cc(C(=O)N(Cc3ccc(P(C)(C)=O)cn3)N(C)c3ncccn3)ccc2nc1N [Example 297, 2-amino-N-((5-(dimethylphosphoryl)pyridin-2-yl)methyl)-N',3-dimethyl-N'-(pyrimidin-2-yl)quinoline-6-carbohydrazide] | 6.4 |
| COc1cc2cc(C(=O)N(Cc3ccc(C(F)(F)F)cn3)N(C)c3ncccn3)ccc2nc1N [Example 319, 2-amino-3-methoxy-N'-methyl-N'-(pyrimidin-2-yl)-N-((5-(trifluoromethyl)pyridin-2-yl)methyl)quinoline-6-carbohydrazide] | 4.7 |
| Nc1nc2ccc(C(=O)N(Cc3ccc(C(F)(F)F)cn3)N(c3ncccn3)C3CC3)cc2cc1CF [Example 323, 2-amino-N'-cyclopropyl-3-(fluoromethyl)-N'-(pyrimidin-2-yl)-N-((5-(trifluoromethyl)pyridin-2-yl)methyl)quinoline-6-carbohydrazide] | 7.1 |
| CN(c1ncccn1)N(Cc1ccc(C(F)(F)F)cn1)C(=O)c1ccc2nc(N)c(C(F)(F)F)cc2c1 [Example 327, 2-amino-N'-methyl-N'-(pyrimidin-2-yl)-3-(trifluoromethyl)-N-((5-(trifluoromethyl)pyridin-2-yl)methyl)quinoline-6-carbohydrazide] | 8.4 |
| Cc1cc2cc(C(=O)N3CC(C)CN3c3ncccc3F)c(F)cc2nc1N (centres unmarked) [Example 333, (2-amino-7-fluoro-3-methylquinolin-6-yl)(2-(3-fluoropyridin-2-yl)-4-methylpyrazolidin-1-yl)methanone] | 7.7 |
| Cc1cc2nc(N)c3cnn(C)c3c2cc1C(=O)N1CC(C)CN1c1ncccc1OC(F)(F)F (centres unmarked) [Example 334, (4-amino-1,7-dimethyl-1H-pyrazolo[4,3-c]quinolin-8-yl)(4-methyl-2-(3-(trifluoromethoxy)pyridin-2-yl)pyrazolidin-1-yl)m ethanone] | 9.2 |
| Cc1cc2cc(C(=O)N3CCCN3c3ccc(C(F)(F)F)cn3)ccc2nc1N [Example 337, (2-amino-3-methylquinolin-6-yl)(2-(5-(trifluoromethyl)pyridin-2-yl)pyrazolidin-1-yl)methanone] | 59 |
| Cn1ncc2c(N)nc3ccc(C(=O)N4CCCN4c4ccc(C(F)(F)F)cn4)cc3c21 [Example 339, (4-amino-1-methyl-1H-pyrazolo[4,3-c]quinolin-8-yl)(2-(5-(trifluoromethyl)pyridin-2-yl)pyrazolidin-1-yl)methanone] | 4.6 |
| Cc1cc2nc(N)c3cnn(C)c3c2cc1C(=O)N1CC(C)CN1c1ncc(C#N)cc1F (centres unmarked) [Example 371, 6-(2-(4-amino-1,7-dimethyl-1H-pyrazolo [4,3-c]quinoline-8-formyl)-4-methylpyrazolidin-1-yl)-5-fluoronicotinonitrile] | 5.5 |
| Cc1cc2nc(N)c3cnn(C)c3c2cc1C(=O)N1C(C)CCN1c1ncccn1 (centres unmarked) [Example 373, (4-amino-1,7-dimethyl-1H-pyrazolo[4,3-c]quinolin-8-yl)(5-methyl-2-(pyrimidin-2-yl)pyrazolidin-1-yl)methanone] | 7.5 |
| Cc1cc2nc(N)c3cnn(C)c3c2cc1C(=O)N1CC(C)CN1c1ccc(C(F)(F)F)cn1 (centres unmarked) [Example 389, (4-amino-1,7-dimethyl-1H-pyrazolo[4,3-c]quinolin-8-yl)(4-methyl-2-(5-(trifluoromethyl)pyridin-2-yl)pyrazolidin-1-yl)met hanone] | 6.3 |
| Cc1cc2nc(N)c3cnn(C)c3c2cc1C(=O)N1CC(C)CN1c1ncccc1C(F)(F)F (centres unmarked) [Example 399, (4-amino-1,7-dimethyl-1H-pyrazolo[4,3-c]quinolin-8-yl)(4-methyl-2-(3-(trifluoromethyl)pyridin-2-yl)pyrazolidin-1-yl)met hanone] | 6.2 |
| Cn1ncc2c(N)nc3cc(C4CC4)c(C(=O)N4CCCN4c4ccc(C(F)(F)F)cn4)cc3c21 [Example 497, (4-amino-7-cyclopropyl-1-methyl-1H-pyr azolo[4,3-c]quinolin-8-yl)(2-(5-(trifluoromethyl)pyridin-2-yl)pyrazolidin-1-yl)met hanone] | 5.1 |
| COc1cc2nc(N)c3cnn(C)c3c2cc1C(=O)N1CCCN1c1ncccc1F [Example 498, (4-amino-7-methoxy-1-methyl-1H-pyraz olo[4,3-c]quinolin-8-yl)(2-(3-fluoropyridin-2-yl)pyrazolidin-1-yl)methanone] | 5 |
| CC(C)c1cc2nc(N)c3cnn(C)c3c2cc1C(=O)N1CCCN1c1ccc(C(F)(F)F)cn1 [Example 500, (4-amino-7-isopropyl-1-methyl-1H-pyraz olo[4,3-c]quinolin-8-yl)(2-(5-(trifluoromethyl)pyridin-2-yl)pyrazolidin-1-yl)metha none] | 41 |

Compounds with a lower IC50, results first:

| IC50 [nM] | SMILES |
| --- | --- |
| 2 | Cc1cc2cc(C(=O)N(Cc3ccc(C4(O)COC4)cn3)N(C)c3ncccn3)ccc2nc1N [Example 285, 2-amino-N-((5-(3-hydroxyoxetan-3-yl)pyridin-2-yl)methyl)-N',3-dimethyl-N'-(pyrimidin-2-yl)quinoline-6-carbohydrazide] |
| 3.7 | Cc1cc2cc(C(=O)N(Cc3ccc(C(C)(C)O)cn3)N(C)c3ncccn3)ccc2nc1N [Example 290, 2-amino-N-((5-(2-hydroxyprop-2-yl)pyridin-2-yl)methyl)-N',3-dimethyl-N'-(pyrimidin-2-yl)quinoline-6-carbohydrazide] |
| 1.3 | Cc1cc2cc(C(=O)N(Cc3ccc(C(F)(F)F)cn3)N(C)c3ncc(P(C)(C)=O)cn3)ccc2nc1N [Example 296, 2-amino-N'-(5-(dimethylphosphoryl)pyrimidin-2-yl)-N',3-dimethyl-N-((5-(trifluoromethyl)pyridin-2-yl)methyl)quinoline-6-carbohydrazide] |
| 2 | COCc1cc2cc(C(=O)N(Cc3ccc(C(F)(F)F)cn3)N(C)c3ncccn3)ccc2nc1N [Example 326, 2-amino-3-(methoxymethyl)-N'-methyl-N'-(pyrimidin-2-yl)-N-((5-(trifluoromethyl)pyridin-2-yl)methyl)quinoline-6-carbohydrazide] |
| 2.1 | Cc1cc2nc(N)c3cnn(C)c3c2cc1C(=O)N1CCCN1c1nccc2nccnc12 [Example 331, (4-amino-1,7-dimethyl-1H-pyrazolo[4,3-c]quinolin-8-yl)(2-(pyrido[3,4-b]pyrazin-5-yl)pyrazolidin-1-yl)methanone] |
| 2.9 | Cc1cc2nc(N)c3cnn(C)c3c2cc1C(=O)N1CCCN1c1ccncc1 [Example 336, (4-amino-1,7-dimethyl-1H-pyrazolo[4,3-c]quinolin-8-yl)(2-(pyridin-4-yl)pyrazolidin-1-yl)methanone] |
| 3.7 | Cc1cc2nc(N)c3cnn(C)c3c2cc1C(=O)N1CC(O)CN1c1ncccc1F (centres unmarked) [Example 356, (4-amino-1,7-dimethyl-1H-pyrazolo[4,3-c]quinolin-8-yl)(2-(3-fluoropyridin-2-yl)-4-hydroxypyrazolidin-1-yl)methanone] |
| 3.1 | Cc1cc2nc(N)c3cnn(C)c3c2cc1C(=O)N1CC(C)CN1c1cccc(F)c1F (centres unmarked) [Example 363, (4-amino-1,7-dimethyl-1H-pyrazolo[4,3-c]quinolin-8-yl)(2-(2,3-difluorophenyl)-4-methylpyrazolidin-1-yl)methanone] |
| 3.4 | Cc1cc2nc(N)c3cnn(C)c3c2cc1C(=O)N1CC(C)CN1c1ncccc1C (centres unmarked) [Example 380, (4-amino-1,7-dimethyl-1H-pyrazolo[4,3-c]quinolin-8-yl)(4-methyl-2-(3-methylpyridin-2-yl)pyrazolidin-1-yl)methanone] |
| 3.1 | Cc1cc2nc(N)c3cnn(C)c3c2cc1C(=O)N1CC(c2ccccc2)CN1c1ncccc1F (centres unmarked) [Example 409, (4-amino-1,7-dimethyl-1H-pyrazolo[4,3-c]quinolin-8-yl)(2-(3-fluoropyridin-2-yl)-4-phenylpyrazolidin-1-yl)methanone] |
| 3.7 | COC1CN(C(=O)c2cc3c(cc2Cl)nc(N)c2cnn(C)c23)N(c2cc(F)ccc2F)C1 (centres unmarked) [Example 440, (4-amino-7-chloro-1-methyl-1H-pyrazolo [4,3-c]quinolin-8-yl)(2-(2,5-difluorophenyl)-4-methoxypyrazolidin-1-yl)methanone] |
| 1.3 | Cc1cc2nc(N)c3cnn(C)c3c2cc1C(=O)N1CCC(=O)N1c1ccc(C(F)(F)F)cn1 [Example 463, 1-(4-amino-1,7-dimethyl-1H-pyrazolo[4,3-c]quinoline-8-carbonyl)-2-(5-(trifluoromethyl)pyridin-2-yl)pyrazolidin-3-one] |
| 3.4 | CCc1cc2nc(N)c3cnn(C)c3c2cc1C(=O)N1CCCN1c1ccc(C(F)(F)F)cn1 [Example 496, (4-amino-7-ethyl-1-methyl-1H-pyrazolo[4,3-c]quinolin-8-yl)(2-(5-(trifluoromethyl)pyridin-2-yl)pyrazolidin-1-yl)methanone] |
